Bounds are passed on as bounds.

A short description of data set [1]: Metal ion oxidative effects on sincalide with/without DTPA (RP-HPLC). Type of data set: physicochemical. The conditions noted are these: analyzed within 8 hours. As for the experimental part:
Experiments were performed to determine whether these residues, as present in sincalide, were susceptible to oxidation by free metals. These experiments also examined the role of DTPA as a formulation excipient to chelate metals and thereby inhibit sincalide oxidation. FIGS. 2-4 show the three oxidized forms of sincalide containing either mono- or disulfoxides.
The experimental formulation (25 mL) solution with (+) and without (−) DTPA were individually spiked with nine metal ions, as summarized in Table 7.
Copper and manganese, in the absence of DTPA, have the greatest oxidative effect on the methionine residues of sincalide resulting in combined weight percentages of Met 3 and Met 6 monosulfoxides (vs sincalide) of 85.5 and 128.9, respectively. In addition to the presence of sincalide Met 3 and Met 6 monosulfoxides (tR≈14.8 min. {doublet} and tR≈18 min.), formation of sincalide disulfoxide (tR≈6.5 min.) was also noted in the cases of copper and manganese, but not with the other metals.

Another data set has as its system gallbladder. The conditions noted are these: patients pretreated before hepatobiliary imaging; typical; cited from earlier work.
A short description of data set [2]: Effect of surfactants on sincalide recovery (RP-HPLC). The format is physicochemical. Conditions: for sincalide recoveries: formulations containing trace levels (2.5-7.5 μg/mL) of the surfactant. From the text: During the preliminary developmental studies of a new formulation that consisted of bulking agent/tonicity adjuster, buffer, salt, chelator, and sincalide, it was observed by HPLC analysis that the recovery of the active pharmaceutical ingredient, sincalide, in the bulk solution was sensitive to standing open to air. […] Although to some extent, this sincalide decrease can be accounted for by an increase in the presence of sincalide mono- and disulfoxide degradants, these represent only a very minor percentage of the decreases noted. Thus the decrease in recovery is thought to be attributed to either adsorption/denaturing or air/liquid interface effects. To minimize sincalide degradation associated with surface adsorption, surfactants are added as formulation excipients in bulk and lyophilized formulations of sincalide.
Sincalide formulations consisting of a bulking agent/tonicity adjuster (D-mannitol), buffer (mono- and dibasic potassium phosphate), salt (sodium/potassium chloride) for tonicity, chelator (pentetic acid), and active ingredient (sincalide) were prepared using varying concentrations of the nonionic surfactant, polysorbate 80 (TWEEN® 80). Bulk solution and reconstituted lyophilized samples were either stoppered immediately or left unstoppered for 17 hours, and were assayed for sincalide recovery by reversed-phase gradient elution HPLC at 215 nm. […]
An additional experiment was performed to confirm the effect of the concentration of TWEEN® 20 in terms of sincalide recovery in both air exposed and sealed bulk formulation. Sincalide recovery, determined for bulk formulation (75.0 mg/mL D-mannitol, 6.0 mg/mL KCl, 3.25 mg/mL KH2PO4, 1.0 mg/mL DTPA, 0.0025 mg/mL sincalide) containing varying trace levels of TWEEN® 20 stored in open or closed vials using reversed-phase gradient elution HPLC, is shown in Table 10. […]

With `CSCC[C@H](NC(=O)[C@H](Cc1ccc(OS(=O)(=O)O)cc1)NC(=O)[C@@H](N)CC(=O)O)C(=O)NCC(=O)N[C@@H](Cc1c[nH]c2ccccc12)C(=O)N[C@@H](CCSC)C(=O)N[C@@H](CC(=O)O)C(=O)N[C@@H](Cc1ccccc1)C(N)=O` [Sincalide, 1-De(5-oxo-L-glutamine-5-L-proline)-2-de-L-methioninecaerulein], the “combined percentages of Met 3 and Met 6 monosulfoxides (vs sincalide)” value in data set [1] (experimental formulation without DTPA spiked with copper (0.63 mM Cu2+)) worked out at 85.5%; in data set [1] (experimental formulation without DTPA spiked with manganese (0.18 mM Mn2+)), 128.9%. The “time to gallbladder contraction after sincalide injection” value with gallbladder is no more than 15 min.

“polyoxyethylene sorbitan monolaurate [TWEEN ® 20]”: the “foaming in the reconstituted product upon vigorous stirring” value in data set [2] (2-mL filled vials, TWEEN 20 concentration of 5 μg/mL) is “slight foaming”. The sincalide recoveries in data set [2] is recorded as 98-102%.

On to polysorbate 80 [TWEEN ® 80], for which the sincalide recoveries in data set [2] is 95-98%.

The values above are taken from patent US6803046B2, “Sincalide formulations” (Bracco International B.V., priority 2002, dated 2004).
